Tests used:
plasma proteins [1] = assay: Plasma protein binding, equilibrium dialysis, monkey; type: in vitro ADME
Description: (§1) The binding of Example 1 and 15 to plasma proteins of different species (human, dog, monkey, rabbit, mouse and rat) was investigated in vitro by using equilibrium dialysis in reusable 96-well Micro-Equilibrium Dialysis Devices (ht dialysis) (Banker M J et al. J Pharm Sci. 2003 May; 92 (5): 967-74).

[2] = Complex stability (transmetallation) against Zn2+ in phosphate buffer; settings: 72 hours, 2.5 mM Zn^2+, 26 mM phosphate buffer, 37° C., pH 7.4
Description: If test compounds are instable under these conditions, transmetallation during this test would lead to the formation of the Zn^2+ complex of the test item, while Gd^3+ is released and precipitated as highly insoluble GdPO4.

plasma proteins [3] = assay: Plasma protein binding, equilibrium dialysis, human; type: in vitro ADME
Description: as §1

[4] = Relaxivity measurements at 1.41 T in water; type: physicochemical; settings: 37° C., normalized to Gd
In short: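 T1 by inversion recovery and T2 by CPMG at 1.41 T (60 MHz), 37° C, relaxation delay ≥5×T1. Three Gd concentrations between 0.05 and 2 mM; relaxivities derived from measured relaxation rates in water.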

plasma proteins [5] = assay: Plasma protein binding, equilibrium dialysis, dog; type: in vitro ADME
Description: as §1

[6] = system: cryopreserved human hepatocytes; assay: In vitro metabolism in cryopreserved human hepatocytes; type: in vitro ADME; settings: 5 μM, incubation time of 4 h, LC-MS
Method: The in vitro metabolism was investigated in cryopreserved human and rat hepatocytes (Li A P et al. Biomark Med. 2014; 8 (2): 173-83). Cryopreserved human (WSS) and rat hepatocytes (Wistar rat, RWH137, male) were incubated with the test compound (incubation concentration: 5 μM). The amount of remaining compound was related to the initial amount (0 mins). The cells were removed from the liquid nitrogen. The vial was immersed in the 37° C. water bath and shaken gently (by hand) until most of the ice was melted (approx. 90 sec.). The cell suspensions were transferred e.g. into a 50 ml-centrifuge tube and 12 ml of 4° C.-cold buffer (e.g. Krebs-Henseleit or Williams Medium E) were added. The cell suspension was centrifuged at 50×g for 5 mins. The buffer was aspirated, and the cells resuspended in 5 ml of fresh warm buffer. An aliquot of 50 μl was mixed with 200 μl trypan blue to determine the cell density and cell viability. The cell suspension was adjusted to a final concentration of 0.8 Mio hepatocytes per mL. The incubations were performed in 96 well plates (1.2 ml volume, negative control without cells). The 0 min samples were stopped immediately by adding 250 μl of ice-cold methanol. All other samples are shaken on an Heidolph®-rotor during incubation in a 37° C. incubator for the indicated period of 4 hours. Aliquots of the samples were used for analysis. All samples were analyzed using LC-MS at 0 h, 1 h, 2 h and 4 h (exemplary LC-MS: Accucore C-18 column, 30° C., 0.35 mL/min flow rate, solvent A: 10 mM Ammonium formate+5% MeCN, pH4 and solvent B: MeCN+0.1% formic acid; […] injection volume, gradient: 90% A, 10% B, 5 min 70% A and 30% B, 8 min 0% A and 100% B).

OATP1B1 = target: T1, OATP1B1 (Homo sapiens, UniProt Q9Y6L6); assay: Uptake into stable transfected OATP1B1 HEK 293 cells; type: cell-based; settings: for Uptake into OATP1B1-HEK 293 cells: 40 min incubation, relative to RC1 (Gd-EOB-DTPA); for Inhibition Rifampicine: uptake into OATP1B1-HEK 293 cells
T1 sequence (Q9Y6L6 1-691): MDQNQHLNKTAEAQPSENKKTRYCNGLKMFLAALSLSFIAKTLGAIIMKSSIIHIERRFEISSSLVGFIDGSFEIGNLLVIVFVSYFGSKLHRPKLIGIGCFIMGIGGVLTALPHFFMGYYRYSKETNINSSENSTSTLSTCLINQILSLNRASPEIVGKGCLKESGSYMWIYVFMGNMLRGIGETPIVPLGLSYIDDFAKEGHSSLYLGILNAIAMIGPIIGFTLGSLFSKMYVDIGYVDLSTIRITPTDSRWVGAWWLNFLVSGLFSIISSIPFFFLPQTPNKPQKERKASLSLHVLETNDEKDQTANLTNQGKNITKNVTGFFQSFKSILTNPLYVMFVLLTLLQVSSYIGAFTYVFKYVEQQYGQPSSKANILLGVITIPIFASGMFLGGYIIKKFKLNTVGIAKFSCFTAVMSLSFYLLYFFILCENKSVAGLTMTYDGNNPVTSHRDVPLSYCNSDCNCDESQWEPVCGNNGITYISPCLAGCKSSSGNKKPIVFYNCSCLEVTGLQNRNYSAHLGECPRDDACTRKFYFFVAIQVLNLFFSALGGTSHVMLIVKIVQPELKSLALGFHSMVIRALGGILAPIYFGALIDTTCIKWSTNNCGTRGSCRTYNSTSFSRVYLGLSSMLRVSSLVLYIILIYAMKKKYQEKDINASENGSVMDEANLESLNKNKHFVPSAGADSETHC
In short: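 Uptake measured in triplicate after a 40 min, unshaken exposure of OATP1B1-expressing HEK293 cells to 100 µM (final) compound in transport buffer. Cold PBS wash stopped uptake; Gd-EOB-DTPA served as reference standard within each plate.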

[7] = Water solubility in aqueous buffer; settings: aqueous buffer 10 mM Tris-HCl, pH 7.4, 20° C.
Method: The solid compounds were added stepwise to the buffer solution. More substance is added once all the suspended material is dissolved until an equilibrium between undissolved and dissolved substance is reached. The suspension was mixed using a shaker (Heidolph Reax 2000) and treated 5 min in an ultrasound bath (Bandelin, Sonorex Super RK255H).

SMILES	Fraction unbound fu (plasma proteins [1])	Transmetallation stability [2]	Fraction unbound fu (plasma proteins [3])	r1 water [4]	Fraction unbound fu (plasma proteins [5])	Metabolites detected [6]	Uptake into OATP1B1-HEK 293 cells (OATP1B1)	Inhibition Rifampicine (OATP1B1)	Solubility [7]
CCOc1ccc(CCOCC(C(=O)O)N2CCN(CC(=O)[O-])CCN(CC(=O)[O-])CCN(CC(=O)[O-])CC2)cc1.[Gd+3] (stereo not drawn) [Example 1, gadolinium 2,2′,2″-(10-{1-carboxy-2-[2-(4-ethoxyphenyl)ethoxy]ethyl}-1,4,7,10-tetraazacyclododecane-1,4,7-triyl)triacetate]	94%	99%	99%	4.1 L/mmol/s	96%	No metabolites were detected	187 % of RC1	92 % inhibition	>258 mM
CCOCCOCCOc1ccc(CC(C(=O)O)N2CCN(CC(=O)[O-])CCN(CC(=O)[O-])CCN(CC(=O)[O-])CC2)cc1.[Gd+3] (stereo not drawn) [Example 2, gadolinium 2,2′,2″-{10-[1-carboxy-2-{4-[2-(2-ethoxyethoxy)ethoxy]phenyl}ethyl]-1,4,7,10-tetraazacyclododecane-1,4,7-triyl}triacetate]	>95%	100%	>95%	4.4 L/mmol/s	>95%	No metabolites were detected	324 % of RC1	45 % inhibition	>757 mM
CCOCCOCCOc1ccc(CCC[C@@H](C(=O)O)N2CCN([C@@H](CO)C(=O)[O-])CCN([C@@H](CO)C(=O)[O-])CCN([C@@H](CO)C(=O)[O-])CC2)cc1.[Gd+3] [Example 15, gadolinium (2S,2′S,2″S)-2,2′,2″-{10-[(1S)-1-carboxy-4-{4-[2-(2-ethoxyethoxy)ethoxy]phenyl}butyl]-1,4,7,10-tetraazacyclododecane-1,4,7-triyl}tris(3-hydroxypropanoate)]	88%	101%	86%	5.1 L/mmol/s	91%	No metabolites were detected	–	91 % inhibition	>500 mM
CCOc1ccc(CC(CN(CCN(CC(=O)[O-])CC(=O)[O-])CC(=O)[O-])N(CC(=O)[O-])CC(=O)[O-])cc1.[Gd+3].[Na+].[Na+] (stereo not drawn) [RC1, gadoxetate disodium, reference compound]	–	44%	–	–	–	–	100 % of RC1	81 % inhibition	>250 mM

Source: patent publication US20260083864A1, “CONTRAST AGENTS FOR USE IN DIAGNOSTIC COMPUTED TOMOGRAPHY IMAGING” (Bayer Aktiengesellschaft, priority 2022, published 2026)
